Data reported in PubChem BioAssay AID1963984 (Molecular Pharmacology Branch, DTP, NCI, 2024).

System: 233499-124-R-J3-PDC spheroids with HUVEC/MSC, viability
Experiment: Anticancer human tumor 233499-124-R-J3-PDC patient-derived colon adenocarcinoma cell line growth inhibition [PI3K]
Conditions: for IC50: curve of first compound; for viability, T/C: stronger effect = lower value
How it was run: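 High-throughput combination screen: PI3K inhibitors crossed with targeted small molecules on complex spheroids of tumor cells, HUVEC and MSCs at 37 degrees C, 5% CO2. Top concentration was at or near clinical Cmax (otherwise 10 microM), with half-log decrements.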
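Also: spheroids exposed to agents for seven days before readout.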
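For viability, T/C in this document: percent viability relative to DMSO vehicle control taken as 100%.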

CC(=O)c1c(C)c2cnc(Nc3ccc(N4CCNCC4)cn3)nc2n(C2CCCC2)c1=O + Cc1nc(NC(=O)N2CCCC2C(N)=O)sc1-c1ccnc(C(C)(C)C(F)(F)F)c1
IC50 (second compound 0.0316 µM): > 0.1 µM | IC50 (second compound 0.1 µM): > 0.1 µM | IC50 (second compound 0.316 µM): 0.0659 µM | IC50 (second compound 1 µM): 0.0582 µM | IC50 (second compound 3.16 µM): 0.042 µM | IC50 (second compound 10 µM): < 0.000316 µM | viability, T/C (second compound 0.0316 µM, first compound 0.000316 µM): 98.6% | viability, T/C (second compound 0.0316 µM, first compound 0.001 µM): 93.2% | viability, T/C (second compound 0.0316 µM, first compound 0.00316 µM): 65.5% | viability, T/C (second compound 0.0316 µM, first compound 0.01 µM): 79.9% | viability, T/C (second compound 0.0316 µM, first compound 0.0316 µM): 99.6% | viability, T/C (second compound 0.0316 µM, first compound 0.1 µM): 79.1% | viability, T/C (second compound 0.1 µM, first compound 0.000316 µM): 90.2% | viability, T/C (second compound 0.1 µM, first compound 0.001 µM): 90.2% | viability, T/C (second compound 0.1 µM, first compound 0.00316 µM): 74.7% | viability, T/C (second compound 0.1 µM, first compound 0.01 µM): 98% | viability, T/C (second compound 0.1 µM, first compound 0.0316 µM): 83% | viability, T/C (second compound 0.1 µM, first compound 0.1 µM): 54.5% | viability, T/C (second compound 0.316 µM, first compound 0.000316 µM): 77.7% | viability, T/C (second compound 0.316 µM, first compound 0.001 µM): 89.7% | viability, T/C (second compound 0.316 µM, first compound 0.00316 µM): 86.6% | viability, T/C (second compound 0.316 µM, first compound 0.01 µM): 75% | viability, T/C (second compound 0.316 µM, first compound 0.0316 µM): 58.5% | viability, T/C (second compound 0.316 µM, first compound 0.1 µM): 45.3% | viability, T/C (second compound 1 µM, first compound 0.000316 µM): 79.5% | viability, T/C (second compound 1 µM, first compound 0.001 µM): 67.9% | viability, T/C (second compound 1 µM, first compound 0.00316 µM): 80.6% | viability, T/C (second compound 1 µM, first compound 0.01 µM): 70% | viability, T/C (second compound 1 µM, first compound 0.0316 µM): 74.9% | viability, T/C (second compound 1 µM, first compound 0.1 µM): 28.3% | viability, T/C (second compound 3.16 µM, first compound 0.000316 µM): 53.3% | viability, T/C (second compound 3.16 µM, first compound 0.001 µM): 57.2% | viability, T/C (second compound 3.16 µM, first compound 0.00316 µM): 76.4% | viability, T/C (second compound 3.16 µM, first compound 0.01 µM): 37.5% | viability, T/C (second compound 3.16 µM, first compound 0.0316 µM): 61.8% | viability, T/C (second compound 3.16 µM, first compound 0.1 µM): 28.2% | viability, T/C (second compound 10 µM, first compound 0.000316 µM): 27.8% | viability, T/C (second compound 10 µM, first compound 0.001 µM): 26.9% | viability, T/C (second compound 10 µM, first compound 0.00316 µM): 27.5% | viability, T/C (second compound 10 µM, first compound 0.01 µM): 34.6% | viability, T/C (second compound 10 µM, first compound 0.0316 µM): 36.9% | viability, T/C (second compound 10 µM, first compound 0.1 µM): 28%
